Test results from patent US11021470B2, “2-substituted quinazoline compounds comprising a substituted heterocyclic group and methods of use thereof” (Araxes Pharma LLC, priority 2015, dated 2021).

Molecular target: T1, KRAS G12C 1-169, his-tagged protein, GDP-loaded (Homo sapiens, UniProt P01116, G12C)
T1 construct: KRAS G12C 1-169, his-tagged protein, GDP-loaded
Assay: KRAS G12C covalent binding (% modification) by mass spectrometry, ten or three minute incubation
Method: Test compounds were prepared as 10 mM stock solutions in DMSO (Fisher cat #BP-231-100). KRAS G12C 1-169, his-tagged protein, GDP-loaded was diluted to […] in buffer (20 mM Hepes, 150 mM NaCl, 1 mM MgCl2). Compounds were tested for activity as follows:
Compounds were diluted to 50× final test concentration in DMSO in 96-well storage plates. Compound stock solutions were vortexed before use and observed carefully for any sign of precipitation. Dilutions were as follow: • For 100 μM final compound concentration, compounds were diluted to 5000 μM (5 μl 10 mM compound stock+5 μl DMSO and mixed well by pipetting. • For 30 μM final compound concentration, compounds were diluted to 1500 μM (3 μl 10 mM compound stock+17 μl DMSO) and mixed well by pipetting. • For 10 μM final compound concentration, compounds were diluted to 500 μM (2 μl 10 mM compound stock+38 μl DMSO) and mixed well by pipetting. 49 μl of the stock protein solution was added to each well of a 96-well PCR plate (Fisher cat #1423027). 1 μl of the diluted 50× compounds were added to appropriate wells in the PCR plate using 12-channel pipettor. Reactions were mixed carefully and thoroughly by pipetting up/down with a 200 μl multi-channel pipettor. […] 5 μl of 2% formic acid (Fisher cat #A117) in DI H2O was then added to each well followed by mixing with a pipette. The plate was then resealed with aluminum seal and stored on dry ice until analyzed as described below.
The above described assays were analyzed by mass spectrometry according to one of the following two procedures:
The MS instrument is set to positive polarity, 2 GHz resolution, and low mass (1700) mode and allowed to equilibrate for 30 minutes. The instrument is then calibrated, switched to acquisition mode and the appropriate method loaded.
After another 30 minute equilibration time, a blank batch (i.e., buffer) is run to ensure equipment is operating properly. The samples are thawed at 37° C. for 10 minutes, briefly centrifuged, and transfer to the bench top. Wells A1 and H12 are spiked with 1 μL 500 μM internal standard peptide, and the plates centrifuged at 2000×g for 5 minutes. The method is then run and masses of each individual well recorded.
The masses (for which integration data is desired) for each well are pasted into the platemap and exported from the analysis. Masses for the internal standards are exported as well. The data at 50 ppm is extracted for the +19 charge state, and identity of well A1 is assigned using the internal standard spike and integrated. Peak data is exported as a TOF list and the above steps are repeated individually, for the +20, 21, 22, 23, 24, and 25 charge states.
The masses and peak intensities of KRAS G12C protein species were measured using a Dionex RSLCnano system (Thermo Scientific) connected to a Q Exactive Plus mass spectrometer (Thermo Scientific).
[…] of sample was each loaded onto a Aeris™ 3.6 μm WIDEPORE C4 200 Å, LC Column 50×2.1 mm column maintained at 40° C. at a flow rate of 600 μl min^−1 with […] (0.1% formic acid in acetonitrile). The liquid chromatography conditions were 20% solvent B for 1 min, 20% to 60% solvent B for 1.5 min, 60% to 90% solvent for 0.5 min, 90% solvent B for 0.2 min, 90% to 20% solvent B for 0.2 min, and then equilibrated for 1.6 min before the following sample injection. The flow rate was maintained at 600 μl min^−1 throughout the sample analysis.
The mass spectrometer was operated in profile mode at a resolution of 17500, 5 microscans, using 50 msec max injection time and an AGC target of 1e6, and a full mass range from 800-1850 m/z was recorded. The HCD trapping gas was optimized for maximum sensitivity for intact proteins. The ionization method was electrospray ionization, which used a spray voltage of 4 kV, sheath gas flow set to 50 au, auxiliary gas flow set to 10 au and sweep gas flow set to 1 au. […]

[1] = covalent binding to KRAS G12C, % modification after a three minute incubation period

Structure (SMILES)	Binding % [1]	Binding % (covalent binding to KRAS G12C after a ten minute incubation period)
C=CC(=O)N1C[C@H](C)N(c2nc(OCC(C)(C)C#N)nc3c(F)c(-c4c(O)cccc4F)c(Cl)cc23)C[C@H]1C (atropisomer, axis not shown) [Compound 282, 3-((4-((2S,5R)-4-acryloyl-2,5-dimethylpiperazin-1-yl)-6-chloro-8-fluoro-7-((S)-2-fluoro-6-hydroxyphenyl)quinazolin-2-yl)oxy)-2,2-dimethylpropanenitrile]	++ (++ indicates binding activity from 50 to 90%)	–
C=CC(=O)N1C[C@H](C)N(c2nc(N3CC(N(C)C)C3)nc3c(F)c(-c4c[nH]c5cccc(F)c45)c(Cl)cc23)C[C@H]1C [Compound 290, 1-((2R,5S)-4-(6-chloro-2-(3-(dimethylamino)azetidin-1-yl)-8-fluoro-7-(4-fluoro-1H-indol-3-yl)quinazolin-4-yl)-2,5-dimethylpiperazin-1-yl)prop-2-en-1-one]	+ (+ indicates binding activity greater than 0% and up to 50%)	–
C=CC(=O)N1C[C@H](C)N(c2nc(OCCn3ccnc3)nc3c(F)c(-c4c(O)cccc4F)c(Cl)cc23)C[C@H]1C (atropisomer, axis not shown) [Compound 249, 1-((2R,5S)-4-(2-(2-(1H-imidazol-1-yl)ethoxy)-6-chloro-8-fluoro-7-((S)-2-fluoro-6-hydroxyphenyl)quinazolin-4-yl)-2,5-dimethylpiperazin-1-yl)prop-2-en-1-one]	+++ (+++ indicates binding activity greater than 90%)	–
C=CC(=O)N1C[C@H](C)N(c2nc(OCCc3cn(C(C)C)cn3)nc3c(F)c(-c4c(O)cccc4F)c(Cl)cc23)C[C@H]1C [Compound 302, 1-((2R,5S)-4-(6-chloro-8-fluoro-7-(2-fluoro-6-hydroxyphenyl)-2-(2-(1-isopropyl-1H-imidazol-4-yl)ethoxy)quinazolin-4-yl)-2,5-dimethylpiperazin-1-yl)prop-2-en-1-one]	+++ (+++ indicates binding activity greater than 90%)	–
C=CC(=O)N1C[C@H](C)N(c2nc(OCCc3ncc(N(C)C)cn3)nc3c(F)c(-c4c(O)cccc4F)c(Cl)cc23)C[C@H]1C (atropisomer, axis not shown) [Compound 258, 1-((2R,5S)-4-(6-chloro-2-(2-(5-(dimethylamino)pyrimidin-2-yl)ethoxy)-8-fluoro-7-((S)-2-fluoro-6-hydroxyphenyl)quinazolin-4-yl)-2,5-dimethylpiperazin-1-yl)prop-2-en-1-one]	+++ (+++ indicates binding activity greater than 90%)	–
C=CC(=O)N1C[C@H](C)N(c2nc(OCCc3ncc(C)n3C)nc3c(F)c(-c4c(O)cccc4F)c(Cl)cc23)C[C@H]1C (atropisomer, axis not shown) [Compound 289, 1-((2R,5S)-4-((S)-6-chloro-2-(2-(1,5-dimethyl-1H-imidazol-2-yl)ethoxy)-8-fluoro-7-(2-fluoro-6-hydroxyphenyl)quinazolin-4-yl)-2,5-dimethylpiperazin-1-yl)prop-2-en-1-one]	+++ (+++ indicates binding activity greater than 90%)	–
C=CC(=O)N1C[C@H](C)N(c2nc(N3CC(N(C)C)C3)nc3c(F)c(-c4c(C)ccc5[nH]nc(I)c45)c(Cl)cc23)C[C@H]1C [Compound 286, 1-((2R,5S)-4-(6-chloro-2-(3-(dimethylamino)azetidin-1-yl)-8-fluoro-7-(3-iodo-5-methyl-1H-indazol-4-yl)quinazolin-4-yl)-2,5-dimethylpiperazin-1-yl)prop-2-en-1-one]	+++ (+++ indicates binding activity greater than 90%)	–
C=CC(=O)N1C[C@H](C)N(c2nc(N3CC(N(C)C)C3)nc3c(F)c(-c4c(C)ccc5[nH]ncc45)c(Cl)cc23)C[C@H]1C (atropisomer, axis not shown) [Compound 130, 1-((2R,5S)-4-(6-chloro-2-(3-(dimethylamino)azetidin-1-yl)-8-fluoro-7-((R)-5-methyl-1H-indazol-4-yl)quinazolin-4-yl)-2,5-dimethylpiperazin-1-yl)prop-2-en-1-one]	+++ (+++ indicates binding activity greater than 90%)	–
C=CC(=O)N1C[C@H](C)N(c2nc(OC3CCN(C)CC3)nc3c(F)c(-c4cc(O)cc5ccccc45)c(Cl)cc23)C[C@H]1C [Compound 245, 1-((2R,5S)-4-(6-chloro-8-fluoro-7-(3-hvdroxynaphthalen-1-yl)-2-((1-methylpiperidin-4-yl)oxy)quinazolin-4-yl)-2,5-dimethylpiperazin-1-yl)prop-2-en-1-one]	+++ (+++ indicates binding activity greater than 90%)	–
C=CC(=O)N1C[C@H](C)N(c2nc(OCCc3cncnc3)nc3c(F)c(-c4c(O)cccc4F)c(Cl)cc23)C[C@H]1C (atropisomer, axis not shown) [Compound 262, 1-((2R,5S)-4-(6-chloro-8-fluoro-7-((S)-2-fluoro-6-hydroxyphenyl)-2-(2-(pyrimidin-5-yl)ethoxy)quinazolin-4-yl)-2,5-dimethylpiperazin-1-yl)prop-2-en-1-one]	+++ (+++ indicates binding activity greater than 90%)	–
C=CC(=O)N1C[C@H](C)N(c2nc(OCCn3ccc4cccnc43)nc3c(F)c(-c4c(O)cccc4F)c(Cl)cc23)C[C@H]1C [Compound 263, 1-((2R,5S)-4-(2-(2-(1H-pyrrolo[2,3-b]pyridin-1-yl)ethoxy)-6-chloro-8-fluoro-7-(2-fluoro-6-hydroxyphenyl)quinazolin-4-yl)-2,5-dimethylpiperazin-1-yl)prop-2-en-1-one]	+ (+ indicates binding activity greater than 0% and up to 50%)	–
C=CC(=O)N1C[C@H](C)N(c2nc(N3CC(N(C)C)C3)nc3c(F)c(-c4c(C)[nH]c5ccccc45)c(Cl)cc23)C[C@H]1C [Compound 287, 1-((2R,5S)-4-(6-chloro-2-(3-(dimethylamino)azetidin-1-yl)-8-fluoro-7-(2-methyl-1H-indol-3-yl)quinazolin-4-yl)-2,5-dimethylpiperazin-1-yl)prop-2-en-1-one]	+ (+ indicates binding activity greater than 0% and up to 50%)	–
C=CC(=O)N1C[C@H](C)N(c2nc(OCCCN3CC(F)(F)C3)nc3c(F)c(-c4c(O)cccc4F)c(Cl)cc23)C[C@H]1C [Compound 250, 1-((2R,5S)-4-(6-chloro-2-(3-(3,3-difluoroazetidin-1-yl)propoxy)-8-fluoro-7-(2-fluoro-6-hydroxyphenyl)quinazolin-4-yl)-2,5-dimethylpiperazin-1-yl)prop-2-en-1-one]	+++ (+++ indicates binding activity greater than 90%)	–
C=CC(=O)N1C[C@H](C)N(c2nc(N3CC(N(C)C)C3)nc3c(F)c(-c4c(O)cccc4F)c(Cl)cc23)C[C@H]1C (atropisomer, axis not shown) [Compound 53, 1-((2R,5S)-4-((R)-6-chloro-2-(3-(dimethylamino)azetidin-1-yl)-8-fluoro-7-(2-fluoro-6-hydroxyphenyl)quinazolin-4-yl)-2,5-dimethylpiperazin-1-yl)prop-2-en-1-one]	–	++ (++ indicates binding activity from 50 to 90%)
C=CC(=O)N1C[C@H](C)N(c2nc(N3CC(N(C)C)C3)nc3c(F)c(-c4c[nH]c5ncccc45)c(Cl)cc23)C[C@H]1C [Compound 300, 1-((2R,5S)-4-(6-chloro-2-(3-(dimethylamino)azetidin-1-yl)-8-fluoro-7-(1H-pyrrolo[2,3-b]pyridin-3-yl)quinazolin-4-yl)-2.5-dimethylpiperazin-1-yl)prop-2-en-1-one]	+ (+ indicates binding activity greater than 0% and up to 50%)	–
